Laboratory results taken from PMC3624797 (Journal of Medicinal Chemistry, 2013).
Values belong to the compound of their own block, whether it stands above or below them.

Tests used:
[1] = Oral exposure in mice; type: in vivo, mouse; conditions: single oral dose 50 mg/kg, suspension in PEG400, after ∼5 h
[2] = Blood and plasma stability; type: in vitro ADME; conditions: rat blood and plasma, over 4 h at 37 °C
[3] = in vivo; conditions: male, Sprague Dawley, rat, plasma
[4] = Tolerability observed in rat PK studies; type: in vivo; conditions: rats; for hemolysis: dosed iv, most likely arising from the vehicle; for signs of toxicity: orally or ip at doses up to ∼20 mg/kg
[5] = rat dosed intravenously
[6] = Metabolic stability in human liver microsomes; type: in vitro ADME
[7] = Chemical stability; type: physicochemical
[8] = Metabolic stability in mouse liver microsomes; type: in vitro ADME; conditions: for metabolic stability (in words): incubated with mouse liver microsomes
[9] = Metabolic stability in rat liver microsomes; type: in vitro ADME

Compound: CCOC(=O)C1=C(C)N/C(=C/c2cc(C)n(-c3ccccc3C(F)(F)F)c2C)C1=O [Compound 8a, Ethyl (5E)-5-[[2,5-dimethyl-1-[2-(trifluoromethyl)phenyl]pyrrol-3-yl]methylene]-2-methyl-4-oxo-1H-pyrrole-3-carboxylate]
plasma levels [1]: < 10 nM | hydrolyzed to the acid 10c [2]: ~25% | half-life [3]: ≥ 8 h | hemolysis [4]: slight degree of hemolysis | signs of toxicity [4]: No sign of toxicity | glutathione conjugation adducts in urine [5]: no adducts resulting from conjugation with glutathione were detected | metabolites detected [6]: none | chemical stability (in words) [7]: fairly resistant to chemical hydrolysis

Compound: CCOC(=O)C1=C(C)N/C(=C/c2cc(C)n(-c3ccc(C(F)(F)F)cc3)c2C)C1=O [Compound 8b, Ethyl (5E)-5-[[2,5-Dimethyl-1-[4-(trifluoromethyl)phenyl]pyrrol-3-yl]methylene]-2-methyl-4-oxo-1H-pyrrole-3-carboxylate]
half-life [3]: ≥ 8 h | hemolysis [4]: slight degree of hemolysis | signs of toxicity [4]: No sign of toxicity | metabolites detected [9]: none | half-life at 1 μM [6]: 0.583 h | metabolites detected [6]: none | metabolites detected ([8]; mouse liver microsomes (Table 6)): none

Compound: CCOC(=O)C1=C(C)N/C(=C/c2ccn(-c3ccccc3C(F)(F)F)c2)C1=O [Compound 9a]
metabolic stability (in words) [8]: even lower metabolic stability

Compound: CC1=CC(=O)/C(=C\c2cc(C)n(-c3ccccc3C(F)(F)F)c2C)N1 [Compound 10d]
metabolic stability (in words) [8]: slightly more stable

Compound: CCOC(=O)C1=C(C)NC(Cc2cc(C)n(-c3ccccc3C(F)(F)F)c2C)C1=O (stereo not shown) [Compound 11b]
chemical stability (in words) [7]: less stable chemically

The remaining lines, values ahead:

metabolic stability (in words) [8]: slightly more stable
Compound: CCOC(=O)C1=C(C)N/C(=C/c2cc(C)n(-c3ccc(CN(C)C)cc3)c2C)C1=O [Compound 8aa]

metabolic stability (in words) [8]: slightly more stable
Compound: CCOC(=O)C1=C(C)N/C(=C/c2cc(C)n(-c3ccc(N4CCOCC4)cc3)c2C)C1=O [Compound 8u]

metabolic stability (in words) [8]: even lower metabolic stability
Compound: CCOC(=O)C1=C(C)N/C(=C/c2ccn(-c3ccc(C(F)(F)F)cc3)c2)C1=O [Compound 9b]

metabolic stability (in words) [8]: even lower metabolic stability
Compound: CCOC(=O)C1=C(C)N/C(=C/c2cc(CC)n(-c3ccccc3C(F)(F)F)c2CC)C1=O [Compound 9c, Ethyl (5E)-5-[[2,5-Diethyl-1-[2-(trifluoromethyl)phenyl]pyrrol-3-yl]methylene]-2-methyl-4-oxo-1H-pyrrole-3-carboxylate]
